Experiments:
HH = assay: Combination study, ATPLite 72 h, dose matrix (Synergy Score, CI50); type: cell-based; conditions: combination with Compound 1
Procedure: The method is described as follows.
Additive effect is CI=1.0. […] Antagonistic effect is CI>1.0.
The Synergy Score is calculated as: […]

SUDHL6 = assay: Compound 1 with dexamethasone, CellTiter-Glo viability 72 h, combination index; type: cell-based; conditions: combination with Compound 1; SUDHL6 cells; CellTiter-Glo 72 h; FIG. 12
Procedure: The effects of Compound 1 with dexamethasone were examined in a panel of cell lines. Cells were cultured and assayed as follows. Compound 1 was serially diluted with cell culture medium and various DMSO concentrations. The top concentration of Compound 1 exposed to cells was 3 uM for cell lines other than WSU-NHL and DOHH2. For WSU-NHL and DOHH2 cell lines, the top concentration of Compound 1 exposed to the cells was 0.3 uM. Dexamethasone was serially diluted in culture media and phosphate buffered saline (PBS). The top concentration of dexamethasone used on cells was 3 uM. Cells were at least 73% viable and were counted and diluted for plating at a density of about 92,000 cell/mL, 130 uL cells per well in 96 well plates for SUDHL6, Karpas 422, SUDHL4, WSU-NHL, RL, and DOHH2 cell lines. The SUDHL10 cell line was plated at a density of about 46,000 cells/mL, 130 uL cells per well in 96 well plates.
Various concentrations of Compound 1 and various combinations of dexamethasone were added to various wells of cells. Single agents (Compound 1 or dexamethasone alone) were also added to some wells of cells. Cells were incubated with compounds for 72 hours. To assay for effects of the compounds on cell viability, a CellTiter-Glo® luminescent cell viability assay (commercially available) was used. To each plate of cells, 100 uL CellTiter-Glo reagent was added, incubated, and luminescence quantified using a […].
The result for cell line SUDHL6 is depicted in FIG. 12 and in Table 12. […] Table 12 depicts combination index (CI) values for different combinations of dexamethasone/Compound 1 concentrations.

OCI-Ly3 = assay: Combination study, ATPLite 72 h, dose matrix (Synergy Score, CI50)
Procedure: Cells are thawed from a liquid nitrogen preserved state. Once cells have been expanded and divide at their expected doubling times, screening begins. Cells are seeded in growth media in either black 1536-well or 384-well tissue culture treated plates. Cells are then equilibrated in assay plates via centrifugation and placed in incubators attached to the Dosing Modules at 37° C. for 24 hours before treatment. […] These Tzero (To) plates are read using ultra-sensitive luminescence on Envision plate readers (Perkin Elmer). Treated assay plates are incubated with compound for 72 hours. After 72 hours, plates are developed for endpoint analysis using ATPLite. All data points are collected via automated processes, quality controlled and analyzed using Zalicus software.
where T is treated cell count and V is untreated (vehicle) cell count (at 72 hours). I ranges from 0% (when T=V) to 100% (when T=0). […] The measure of effect in the experiment can be the inhibition of cellular response relative to the untreated level (vehicle alone). […] The inhibition ranges from 0% at the untreated level to 100% when T=0. Inhibition levels are negative for agents that actually increase levels. Other effect measures, such as an activity ratio r=T/V may be more appropriate for some assays. When activity ratios (e.g, fold increase over stimulated control) are being used, the effect can be measured using an induction 1=ln(T/V). With this definition, all effect expressions are the same as for inhibition.
Growth Inhibition (GI) is used as a measure of cell viability. […] A GI reading of 100% represents complete growth inhibition—T72 compound-treated and T0 vehicle signals are matched. […] A GI reading of 200% represents complete death of all cells in the culture well. Compounds reaching an activity plateau of GI 200% are considered cytotoxic. GI is calculated by applying the following test and equation:
Combination analysis data were collected in a 6×6 dose matrix. Synergy is calculated by comparing a combination's response to those of its single compound, against the drug-with-itself dose-additive reference model. Deviations from dose additivity may be assessed visually on an isobologram or numerically with a Combination Index (CI). […] Additive effect is CI=1.0. […] Antagonistic effect is CI>1.0.
To measure combination effects in excess of Loewe additivity, a scalar measure to characterize the strength of synergistic interaction termed the Synergy Score is devised. The Synergy Score is calculated as:
The fractional inhibition for each component agent and combination point in the matrix is calculated relative to the median of all vehicle-treated control wells. The Synergy Score equation integrates the experimentally-observed activity volume at each point in the matrix in excess of a model surface numerically derived from the activity of the component agents using the Loewe model for additivity. Additional terms in the Synergy Score equation (above) are used to normalize for various dilution factors used for individual agents and to allow for comparison of synergy scores across an entire experiment. The inclusion of positive inhibition gating or an Idata multiplier removes noise near the zero effect level, and biases results for synergistic interactions at that occur at high activity levels.
Loewe Volume (Loewe Vol) is used to assess the overall magnitude of the combination interaction in excess of the Loewe additivity model. Loewe Volume is particularly useful when distinguishing synergistic increases in a phenotypic activity (positive Loewe Volume) versus synergistic antagonisms (negative Loewe Volume). […] This model defines additivity as a non-synergistic combination interaction where the combination dose matrix surface should be indistinguishable from either drug crossed with itself. The calculation for Loewe additivity is:

SU-DHL-4-epst = assay: as above; conditions: combination with Compound 1, 72 h
[1] = combination with CAL-101, OCT-Ly3, Example 2
[2] = combination with Cmpd 1, OCT-Ly3, Example 2
[3] = combination with Compound 1, OCI-Ly3, 72 h

## C[C@@H]1C[C@H]2[C@@H]3CCC4=CC(=O)C=C[C@]4(C)[C@@]3(F)[C@@H](O)C[C@]2(C)[C@@]1(O)C(=O)CO [dexamethasone, (8S,9R,10S,11S,13S,14S,16R,17R)-9-Fluoro-11,17-dihydroxy-17-(2-hydroxyacetyl)-10,13,16-trimethyl-6,7,8,9,10,11,12,13,14,15,16,17-dodecahydro-3H-cyclopenta[a]phenanthren-3-one]
HH
  CI50 growth inhibition: S (S=0.01 to <0.5)
  CI50 inhibition: S (S=0.01 to <0.5)
  Synergy Score growth inhibition: A3 (A3=>3)
  Synergy Score inhibition: A3 (A3=>3)
SUDHL6
  synergy of the combination: synergy
OCI-Ly3; [1]
  Synergy Score growth inhibition: A1 (A1=0.0001 to <1)
  Synergy Score inhibition: A1 (A1=0.0001 to <1)
OCI-Ly3; [2]
  CI50 growth inhibition: W (W=≥1)
  Synergy Score growth inhibition: A1 (A1=0.0001 to <1)
  Synergy Score inhibition: A1 (A1=0.0001 to <1)
OCI-Ly3; [3]
  CI50 growth inhibition: U (U=0.7 to <1)
  Synergy Score growth inhibition: A1 (A1=0.0001 to <1)
  Synergy Score inhibition: A1 (A1=0.0001 to <1)
SU-DHL-4-epst
  CI50 growth inhibition: T (T=0.5 to <0.7)
  CI50 inhibition: T (T=0.5 to <0.7)
  Synergy Score growth inhibition: A3 (A3=>3)
  Synergy Score inhibition: A3 (A3=>3)
